We go through one compound from patent US10479814B2, “Adenosine receptor activation reagent and the uses of thereof” (Zhejiang Subtropical Crops Research Institute, priority 2014, dated 2019).

“Also recorded” adds a separate entry of the source.

Assay [1] concerns the target T1, rat cerebral cortex adenosine A1 receptor (Rattus norvegicus, UniProt P25099).
T1 construct: DPCPX; from tissue; host or cells: Wistar rat cerebral cortex
T1 sequence (P25099 1-326): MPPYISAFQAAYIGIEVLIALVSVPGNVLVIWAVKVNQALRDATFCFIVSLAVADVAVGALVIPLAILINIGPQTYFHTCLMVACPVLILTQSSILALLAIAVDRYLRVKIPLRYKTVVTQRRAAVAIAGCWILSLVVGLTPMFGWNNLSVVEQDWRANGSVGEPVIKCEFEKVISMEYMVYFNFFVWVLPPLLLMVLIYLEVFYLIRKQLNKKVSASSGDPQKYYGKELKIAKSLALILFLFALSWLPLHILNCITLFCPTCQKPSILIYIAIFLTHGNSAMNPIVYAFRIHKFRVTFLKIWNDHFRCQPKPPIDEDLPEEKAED
Nature of the assay: adenosine A1 receptor ligand binding test ([3H]DPCPX).

For assay [2], the system named is mouse PD model induced by MPTP. Nature of the assay: MPTP induced mouse PD model: TH positive cells in substantia nigra. It is filed as in vivo. Conditions: MPTP 30 mg/kg mice; Cordyceps cicadae extract 1500 mg/kg; HEA 10 mg/kg ip; 14 days. On the procedure:
24±1 g male C57BL/6 mice were randomly divided into six groups: control group, model group, Cordyceps cicadae extract group (1500 mg/kg) (the extract method can refer to Example 3), HEA (5 mg/kg, 10 mg/kg, 15 mg/kg) group. Using mouse PD model induced by 1-methyl-4-phenyl-[…] (MPTP), in Cordyceps cicadae crude extract group and HEA with different concentration group were respectively peritoneal injected for consecutive 14 days, and at Day 11, before 1 hour of drug administration, MPTP 30 mg/kg was peritoneally injected, for consecutive 4 days, after one day after the last administration, a behavior test of pole-climbing ability was conducted, after 4 days the rat wad killed by puling neck and the striatum was removed. […]
After completion of behaviour detection, the heart was perfuse with 4% paraformaldehyde and the brain was removed, fixed, desiccated, embedded, and different parts in substantia nigra region were removed for coronal sectioned, tyrosine hydroxylase was used as specific marker for the neuron. The primary antibody is monoclonal mouse TH antibody (1;1000, Sigma), and the secondary antibody is Alexa fluor 488 fluorescence labeling goat anti-mouse (1;1000, Molecular Probes). Taking photo by a fluorescence microscope, and the TH positive cell in the substantia nigra were counted.

For assay [3], the target named is T2, rat striatum adenosine A2A receptor (Rattus norvegicus, UniProt P30543).
T2 construct: from tissue; host or cells: Wistar rat striatum
Nature of the assay: adenosine A2A receptor ligand binding test ([3H]MSX-2). Conditions: rat striatum homogenate, 0.75 nM [3H]MSX-2, 25° C. 30 min; read-out: Ki value of competitive binding with the adenosine A2A receptor.
Protocol: Using Wistar rat, head was cut and the brain was removed, and cerebral cortex and striatum were separated, respectively weighed, added into 10 fold volume of ice-cooled Tris-HCL buffer solution (50 mM, PH7.5) according to 1:10, the tissue is homogenized, after the suspension was centrifuged the supernatant was discarded, the above-described solution wash was repeated for 3 times, centrifuged again and the supernatant was discarded, the precipitate was again mixed in 50 mM Tris-HCL buffer solution, the protein concentration in rat cerebral cortex determined by Coomassie Brilliant Blue Method (Bradford method) was 0.8 mg/ml, the protein content in rat striatum brain tissue homogenate was 1.3 mg/ml.
To a detect tube the HEA with different concentration (10^−9, 10^−8, 10^−7, 10^−6, 10^−5 mol/L) were added, mixed well, then incubated at 25° C. in water bath on shaking table for 30 min, the reaction liquid was drawn by a cell collector, passed the GF/B glass filter membrane (Watman), reaction was terminated, washed 3 times with Tris-HCl buffer solution, each time 3 ml, the filter membrane was removed and dried, then put into a scintillation vial containing 4 ml of scintillation solution to determine radioactivity. A radioactivity count to the filter membrane was conducted by a scintillation counter.

Assay [4] relates to mouse PD model induced by MPTP. Nature of the assay: MPTP induced mouse PD model: pole-climbing method. It counts as in vivo. Conditions: MPTP 30 mg/kg mice; Cordyceps cicadae extract 1500 mg/kg; HEA 10 mg/kg ip; 14 days. On the procedure:
24±1 g male C57BL/6 mice were randomly divided into six groups: control group, model group, Cordyceps cicadae extract group (1500 mg/kg) (the extract method can refer to Example 3), HEA (5 mg/kg, 10 mg/kg, 15 mg/kg) group. Using mouse PD model induced by 1-methyl-4-phenyl-[…] (MPTP), in Cordyceps cicadae crude extract group and HEA with different concentration group were respectively peritoneal injected for consecutive 14 days, and at Day 11, before 1 hour of drug administration, MPTP 30 mg/kg was peritoneally injected, for consecutive 4 days, after one day after the last administration, a behavior test of pole-climbing ability was conducted, after 4 days the rat wad killed by puling neck and the striatum was removed. The control group was given same amount of normal saline, the model group at Day 11, one hour before the normal saline was given, MPTP 30 mg/kg was peritoneally injected, for four consecutive days.
Heading down, the mouse was placed onto top of a wooden pole with a length of 50 cm, diameter of 10 mm, the time for the mouse clime from top to bottom along the pole was record, the time difference between before and after the modeling was calculate, and analyzed statistically.

In assay [5] the test system is rat middle cerebral artery distal obstruction cerebral ischemia model. Nature of the assay: dMCAO cerebral ischemia: infarct size by TTC staining. It is filed as in vivo. Conditions: HEA 7.5 mg/kg ip, 24 hours after modeling, vs model group.

T2 sequence (P30543 whole entry): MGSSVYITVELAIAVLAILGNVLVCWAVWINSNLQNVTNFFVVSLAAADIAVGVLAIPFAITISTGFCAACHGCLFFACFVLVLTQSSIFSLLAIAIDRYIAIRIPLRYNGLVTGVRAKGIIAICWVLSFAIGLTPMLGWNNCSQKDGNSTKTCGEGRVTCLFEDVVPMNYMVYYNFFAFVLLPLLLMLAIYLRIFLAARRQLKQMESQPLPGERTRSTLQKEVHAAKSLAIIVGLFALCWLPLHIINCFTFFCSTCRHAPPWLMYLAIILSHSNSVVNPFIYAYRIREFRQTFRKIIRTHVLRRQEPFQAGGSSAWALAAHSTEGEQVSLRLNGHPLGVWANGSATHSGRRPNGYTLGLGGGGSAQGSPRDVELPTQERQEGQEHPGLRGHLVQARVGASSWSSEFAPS

In general, Ki refers to a dissociation constant, usually derived from enzyme kinetics or from competition with a known ligand. With `OCCNc1ncnc2c1ncn2[C@@H]1O[C@H](CO)[C@@H](O)[C@H]1O` [HEA, N(6)-(2-hydroxyethyl)-adenosine], the “affinity to adenosine A1 receptor relative to adenosine A2A receptor” value in assay [1] (A1 versus A2A) was 100 fold. The “selectivity to A1 receptor (in words)” value in assay [1] (A1 versus A2A binding) is listed as “high selectivity to A1 receptor”. Also, the Ki in assay [1] (rat cerebral cortex homogenate, 0.2 nM [3H]DPCPX, 25° C. 30 min, read-out: Ki value of competitive binding with the adenosine A1 receptor) is 0.0895 µM; in assay [3] it was ~8.92 µM. Moreover, the “number of the TH positive cells in substantia nigra” value in assay [2] was “increase number of the TH positive cells”. In assay [4], the “multilimb coordination ability (pole-climbing)” value is “improve multilimb coordination ability of mouse to different degree”. In addition, the “infarct size (TTC staining)” value in assay [5] is listed as “significantly reduce cerebral infarction area; also recorded: significantly reduce the infarct size of the injured brain”.
